Entries after “also recorded” stand apart in the source; their conditions may differ. Read-outs that look alike come from different tables or passages of the source.

One assay deals with AChE. Also noted: method as in Akay et al. [2023]. Particulars: ref Akay et al. [2023]; cited from earlier work.
Assay [1] concerns the target T1, human BChE (Homo sapiens, UniProt P06276).
T1 construct: purification process was performed using 0 Rh (−) human blood serum from the Hacettepe Hospital blood bank; from tissue; host or cells: human blood serum (0 Rh(−), Hacettepe Hospital blood bank)
The assay can be described thus: IC50 determination, modified 96-microtiter plate Ellman assay. It is filed as biochemical. The following applies: purified human serum BChE, 0.5 mM BTCh, 50 mM MOPS pH 7.4, 37 °C, Table 2 head prints no unit, µM. As to the method:
(§1) The butyrylcholinesterase purification process was performed using 0 Rh (−) human blood serum from the Hacettepe Hospital blood bank, as described in a previous study (Gok et al. [2023]). BChE was subjected to acid dialysis followed by DEAE-Trisacryl M ion-exchange chromatography under pH 5.5 conditions. The pooled active fractions from Trisacryl M chromatography were dialyzed to adjust neutral buffer pH 7.4 and transferred to procainamide-Sepharose 4B chromatography. The BChE enzyme was bound to the procainamide column, which was then washed with 25 mM phosphate buffer at pH 7.4. The BChE was eluted from the column with a linear gradient of 0.2–0.8 M NaCl in 25 mM potassium phosphate buffer pH 7.4, followed by dialysis. […] Silver staining (Blum et al. [1987]) and the Karnovsky-Roots technique (Karnovsky and Roots [1964]) were used to visualize gels that had been labeled for activity and protein, […].
The IC₅₀ was determined using the modified 96-microtiter plate Ellman assay (George and Abernethy [1983]), using a total volume of 200 µL. […] The unsaturated fatty acids used for the test were dissolved in DMSO and then the working solutions were sonicated in a reaction buffer for 30 s, followed by a further 30 s. The fatty acid solutions with different final concentrations of 10–7500 µM were added to the wells. Subsequently, 50 mM MOPS buffer (pH 7.4) and 0.7 µg of purified BChE enzyme were added. The plate was incubated in the absence of light with a plate shaker at 37 °C for 10 min. Measurements were initiated by adding a final concentration of 0.25 mM DTNB (ε412, DTNB = 14.2 mM^−1 cm^−1) and 0.5 mM butyrylthiocholine (BTCh). The mixture of 1% DMSO without the BTCh substrate was used as the reagent blank. The absorbance readings were recorded at a wavelength of 412 nm for a period of 10 min using the Spectramax M2 microplate reader (Molecular Devices, USA). The activity without fatty acids was set as 100% control, while all activities with fatty acids were compared to this control. IC₅₀ values were determined using GraphPad Prism 8.4 software by plotting the percentage of BChE activity against the fatty acid concentration. Each test was performed at least four times and average values were reported as final results.

Assay [2] deals with T1, human BChE. The assay can be described thus: Inhibition kinetics, Ellman method with varying BTCh substrate. It is filed as biochemical. Particulars: for Ki: BTCh as substrate (1.0-0.05 mM), three fatty acid concentrations; for Inhibition type: Lineweaver-Burk analysis, BTCh as substrate. As to the method:
as §1
Evaluation of BChE activity was performed according to the Ellman method (George and Abernethy [1983]) with a minor modification in a 96-well microtiter plate assay. The fatty acids oleic acid, linoleic acid, α-LA, and arachidonic acid used in the assay were dissolved in DMSO. The working solutions were then sonicated in a reaction buffer for 30 + 30 s. Based on previous experimental results, three concentrations of oleic acid, linoleic acid, α-LA, and arachidonic acid were chosen: 200–750 µM, 500–2500 µM, 50–250 µM, and 100–300 µM, respectively. This was to clarify the inhibitory mechanisms for the fatty acids. In the presence of these fatty acids, BChE activity was measured at eight progressively lower concentrations (1.0–0.05 mM) of the BTCh substrate. The experimental procedure involved incubation of a solution of the fatty acid with BChE enzyme (0.7 µg), 50 mM MOPS buffer pH 7.4, and 0.25 mM DTNB in the absence of light at 37 °C for 5 min. The reaction was initiated and monitored for 10 min at 412 nm in kinetic mode after addition of the substrate. The identical solution was run with buffer instead of fatty acids as a control and all assays were performed in triplicate. Enzyme activity was expressed in milliunits (mU), where 1 mU corresponds to the hydrolysis of 1 nmol of BTCh per minute at room temperature.
Enzyme kinetics data was analyzed and graphs were plotted using GraphPad Prism 8.42. The kinetic parameters and the enzyme-substrate relationship were fitted to the Michaelis-Menten model using nonlinear regression.

T1 sequence (P06276 29-602): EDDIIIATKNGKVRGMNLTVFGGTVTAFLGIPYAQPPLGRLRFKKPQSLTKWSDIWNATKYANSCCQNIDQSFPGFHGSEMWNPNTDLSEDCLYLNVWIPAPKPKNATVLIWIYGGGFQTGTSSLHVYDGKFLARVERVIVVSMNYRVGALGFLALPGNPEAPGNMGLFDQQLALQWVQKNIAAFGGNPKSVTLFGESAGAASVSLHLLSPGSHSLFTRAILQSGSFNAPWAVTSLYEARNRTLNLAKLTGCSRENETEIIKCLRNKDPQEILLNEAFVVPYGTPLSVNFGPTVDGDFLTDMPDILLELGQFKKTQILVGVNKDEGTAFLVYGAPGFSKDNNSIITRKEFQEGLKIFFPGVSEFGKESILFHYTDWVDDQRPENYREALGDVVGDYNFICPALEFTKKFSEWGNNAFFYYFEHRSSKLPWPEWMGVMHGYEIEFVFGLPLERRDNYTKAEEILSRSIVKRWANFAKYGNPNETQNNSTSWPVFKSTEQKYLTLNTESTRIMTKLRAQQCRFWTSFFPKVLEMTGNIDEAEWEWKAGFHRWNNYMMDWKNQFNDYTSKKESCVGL

As to `CCCCC/C=C\C/C=C\C/C=C\C/C=C\CCCC(=O)O` [Arachidonic acid, arachidonic acid], in the assay on AChE, the “inhibitory effect on AChE (IC50), rank in words” value is “strongest inhibitory effect”. Besides, the IC50 entry against human BChE [1] is “strongest inhibitory activity”; at human BChE [1] (read-out: IC50), 611 µM. At human BChE [2] (read-out: Ki), the Ki stood at 465 µM. Further, the figures for the Inhibition type result at human BChE [2] (listed as AA) and at human BChE [2] (listed as Arachidonic acid (20:4)) were “uncompetitive type inhibition” and “Uncompetitive”, respectively.
In the case of `CCCCC/C=C\C/C=C\CCCCCCCC(=O)O` [Linoleic acid, linoleic acid], at human BChE [1] (read-out: IC50), the IC50 was found to be 5910 µM. Also, the Ki on human BChE [2] (read-out: Ki) is 1400 µM. The figures for the Inhibition type result on human BChE [2], on human BChE [2] (listed as LA) and on human BChE [2] (listed as Linoleic acid (18:2)) were “Noncompetitive inhibition”, “noncompetitive inhibition type” and “Noncompetitive”, respectively.
For `CCCCCCCC/C=C\CCCCCCCC(=O)O` [Oleic acid, oleic acid], on human BChE [1] (read-out: IC50), the IC50 came out at 2370 µM. For the same molecule, the Ki entry at human BChE [2] was “lowest Ki value”; on human BChE [2] (read-out: Ki) it was 321 µM. The Inhibition type entry on human BChE [2] is “noncompetitively”; at human BChE [2] (listed as Oleic acid (18:1)), “Noncompetitive”.
Turning to `CCCCCCCCCCCCCCCCCCCC(=O)O` [eicosanoic acid], in the assay on AChE, the “AChE inhibition in words” value is “strongly inhibits”.
On to `CC/C=C\C/C=C\C/C=C\CCCCCCCC(=O)O` [α-Linolenic acid, alpha-linolenic acid], for which, on AChE, the “noncompetitive inhibitory constants (Ki) on AChE, rank in words” value is “lowest Ki”. Also, the IC50 at human BChE [1] (read-out: IC50) is 5810 µM. For the same molecule, the Ki at human BChE [2] (read-out: Ki) worked out at 667 µM. For the same molecule, the Inhibition type result is recorded as “noncompetitively; also recorded: noncompetitive inhibition type” on human BChE [2] (listed as α-LA) and “Noncompetitive” on human BChE [2] (listed as α-Linolenic acid (18:3)).

(Values after article PMC12449371, “The role of unsaturated fatty acids in modulating human butyrylcholinesterase activity: insights from kinetics and molecular docking” (Naunyn-Schmiedeberg's Archives of Pharmacology, 2025).)
